# In patent US20260226068A1, “IMIDAZOTRIAZINE IL-17A MODULATORS AND USES THEREOF” (DICE ALPHA, INC., priority 2023, published 2026):
# Experiments:
# IL-17A/A = target: T1, IL-17A/A (Homo sapiens, UniProt Q16552); experiment: IL-17A/A HEK-Blue cell assay (SEAP reporter); type: cell-based; details: HEK-Blue IL-17A reporter cells, IL17A/A 5 ng/mL, 20 hours, SEAP read at A630; read-out: HEK-Blue IL17AA (IC50 for IL-17A/A inhibition)
# T1 construct: purchased Genscript Z03228
# T1 sequence (Q16552 24-155): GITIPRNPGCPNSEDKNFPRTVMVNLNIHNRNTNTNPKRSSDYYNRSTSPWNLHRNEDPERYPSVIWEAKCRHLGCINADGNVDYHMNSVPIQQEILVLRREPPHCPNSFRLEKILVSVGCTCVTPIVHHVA
# IL-17A/F = target: T2, IL-17A/F (Homo sapiens, UniProt Q16552+Q96PD4); experiment: IL-17A/F HEK-Blue cell assay (SEAP reporter); type: cell-based; details: HEK-Blue IL-17A reporter cells, IL17A/F 5 ng/mL, 20 hours, SEAP read at A630; read-out: HEK-Blue IL17AF (IC50 for IL-17A/F inhibition)
# T2 construct: purchased R&D Systems
# T2 sequence (Q16552 24-155): T1 sequence (Q16552 24-155)
# T2 sequence (Q96PD4 31-163): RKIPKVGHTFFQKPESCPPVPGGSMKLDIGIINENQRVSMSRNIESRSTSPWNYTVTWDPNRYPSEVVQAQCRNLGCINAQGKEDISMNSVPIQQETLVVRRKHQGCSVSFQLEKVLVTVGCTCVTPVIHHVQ
Structure (SMILES),IC50 (IL-17A/A),IC50 (IL-17A/F)
"CC(C)c1nocc1C(=O)N[C@H](c1cn2nc(CC3C[C@@H](C(F)(F)F)CNC3=O)cnc2n1)C1CCC(F)(F)CC1 (stereo partly drawn) [Compound 8, N—((S)-(4,4-difluorocyclohexyl)(2-(((5R)-2-oxo-5-(trifluoromethyl)piperidin-3-yl)methyl)imidazo[1,2-b][1,2,4]triazin-6-yl)methyl)-3-isopropylisoxazole-4-carboxamide]",0.1 to 1 µM,> 1 µM
"O=C(N[C@H](c1cn2nc(CC3C[C@@H](C(F)(F)F)CNC3=O)cnc2n1)C1CCC(F)(F)CC1)c1conc1C1CC1 (stereo partly drawn) [Compound 9, 3-cyclopropyl-N—((S)-(4,4-difluorocyclohexyl)(2-(((5R)-2-oxo-5-(trifluoromethyl)piperidin-3-yl)methyl)imidazo[1,2-b][1,2,4]triazin-6-yl)methyl)isoxazole-4-carboxamide]",< 0.1 µM,> 1 µM
"O=C(N[C@H](c1cn2nc(CC3C[C@@H](C(F)(F)F)CNC3=O)cnc2n1)C1CCC(F)(F)CC1)c1conc1C(F)(F)F (stereo partly drawn) [Compound 10, N—((S)-(4,4-difluorocyclohexyl)(2-(((5R)-2-oxo-5-(trifluoromethyl)piperidin-3-yl)methyl)imidazo[1,2-b][1,2,4]triazin-6-yl)methyl)-3-(trifluoromethyl)isoxazole-4-carboxamide]",0.1 to 1 µM,> 1 µM
"CCc1nonc1C(=O)N[C@H](c1cn2nc(CC3C[C@@H](C(F)(F)F)CNC3=O)cnc2n1)C1CCC(F)(F)CC1 (stereo partly drawn) [Compound 11, N—((S)-(4,4-difluorocyclohexyl)(2-(((5R)-2-oxo-5-(trifluoromethyl)piperidin-3-yl)methyl)imidazo[1,2-b][1,2,4]triazin-6-yl)methyl)-4-ethyl-1,2,5-oxadiazole-3-carboxamide]",0.1 to 1 µM,> 1 µM
CC(C)c1nonc1C(=O)N[C@H](c1cn2nc(CC3C[C@@H](C(F)(F)F)CNC3=O)cnc2n1)C1CCC(F)(F)CC1 (stereo partly drawn) [Compound 12],< 0.1 µM,> 1 µM
"O=C(N[C@H](c1cn2nc(CC3C[C@@H](C(F)(F)F)CNC3=O)cnc2n1)C1CCC(F)(F)CC1)c1nonc1C1CC1 (stereo partly drawn) [Compound 13, 4-cyclopropyl-N—((S)-(4,4-difluorocyclohexyl)(2-(((5R)-2-oxo-5-(trifluoromethyl)piperidin-3-yl)methyl)imidazo[1,2-b][1,2,4]triazin-6-yl)methyl)-1,2,5-oxadiazole-3-carboxamide]",< 0.1 µM,> 1 µM
"CC(C)n1nccc1C(=O)N[C@H](c1cn2nc(CC3C[C@H](C(F)(F)F)CNC3=O)cnc2n1)C1CCC(F)(F)CC1 (stereo partly drawn) [Compound 15, N—((S)-(4,4-difluorocyclohexyl)(2-(((5S)-2-oxo-5-(trifluoromethyl)piperidin-3-yl)methyl)imidazo[1,2-b][1,2,4]triazin-6-yl)methyl)-1-isopropyl-1H-pyrazole-5-carboxamide]",0.1 to 1 µM,> 1 µM
"O=C(N[C@H](c1cn2nc(CC3C[C@H](C(F)(F)F)CNC3=O)cnc2n1)C1CCC(F)(F)CC1)c1nonc1C1CC1 (stereo partly drawn) [Compound 16, 4-cyclopropyl-N—((S)-(4,4-difluorocyclohexyl)(2-(((5S)-2-oxo-5-(trifluoromethyl)piperidin-3-yl)methyl)imidazo[1,2-b][1,2,4]triazin-6-yl)methyl)-1,2,5-oxadiazole-3-carboxamide]",0.1 to 1 µM,> 1 µM
CCn1nccc1C(=O)N[C@H](c1cn2nc(CC3C[C@@H](C(F)(F)F)CNC3=O)cnc2n1)C1CCC(F)(F)CC1 (stereo partly drawn) [Compound 24],0.1 to 1 µM,> 1 µM
CCn1nccc1C(=O)N[C@H](c1cn2nc(C[C@@H]3C[C@@H](C(F)(F)F)CNC3=O)cnc2n1)[C@H]1CC[C@H](C)CC1 [Compound 25],0.1 to 1 µM,> 1 µM
CCn1nccc1C(=O)N[C@H](c1cn2nc(C[C@H]3C[C@@H](C(F)(F)F)CNC3=O)cnc2n1)[C@H]1CC[C@H](C)CC1 [Compound 26],< 0.1 µM,> 1 µM
CCn1nccc1C(=O)N[C@H](c1cn2nc(C[C@H]3C[C@@H](C(F)(F)F)CNC3=O)cnc2n1)C1CCC(F)(F)CC1 [Compound 27],< 0.1 µM,> 1 µM
CCn1nccc1C(=O)N[C@H](c1cn2nc(C[C@@H]3C[C@@H](C(F)(F)F)CNC3=O)cnc2n1)C1CCC(F)(F)CC1 [Compound 28],0.1 to 1 µM,> 1 µM
"CCn1nccc1C(=O)N[C@H](c1cn2nc(C[C@H]3C[C@@H](C(F)(F)F)CNC3=O)cnc2n1)C(C1CC1)C1CC1 [Compound 29, N—((S)-2,2-dicyclopropyl-1-(2-(((3R,5R)-2-oxo-5-(trifluoromethyl)piperidin-3-yl)methyl)imidazo[1,2-b][1,2,4]triazin-6-yl)ethyl)-1-ethyl-1H-pyrazole-5-carboxamide]",< 0.1 µM,> 1 µM
"CCn1nccc1C(=O)N[C@H](c1cn2nc(C[C@H]3C[C@@H](C(F)(F)F)CNC3=O)cnc2n1)[C@H]1CCCC(F)(F)C1 [Compound 30, N—((S)—((S)-3,3-difluorocyclohexyl)(2-(((3R,5R)-2-oxo-5-(trifluoromethyl)piperidin-3-yl)methyl)imidazo[1,2-b][1,2,4]triazin-6-yl)methyl)-1-ethyl-1H-pyrazole-5-carboxamide]",< 0.1 µM,> 1 µM
CC(C)c1nocc1C(=O)N[C@H](c1cn2nc(C[C@H]3C[C@@H](C(F)(F)F)CNC3=O)cnc2n1)C1CCC(F)(F)CC1 [Compound 32],0.1 to 1 µM,> 1 µM
CC(C)n1nccc1C(=O)N[C@H](c1cn2nc(C[C@H]3C[C@@H](C(F)(F)F)CNC3=O)cnc2n1)C1CCC(F)(F)CC1 [Compound 34],< 0.1 µM,> 1 µM

Structure (SMILES),IC50 (IL-17A/A),IC50 (IL-17A/F)
CCc1nonc1C(=O)N[C@H](c1cn2nc(C[C@H]3C[C@@H](C(F)(F)F)CNC3=O)cnc2n1)C1CCC(F)(F)CC1 [Compound 35],0.1 to 1 µM,> 1 µM
Cn1nccc1C(=O)N[C@H](c1cn2nc(C[C@H]3C[C@@H](C(F)(F)F)CNC3=O)cnc2n1)C1CCC(F)(F)CC1 [Compound 36],0.1 to 1 µM,> 1 µM
CC(C)c1nonc1C(=O)N[C@H](c1cn2nc(C[C@H]3C[C@@H](C(F)(F)F)CNC3=O)cnc2n1)C1CCC(F)(F)CC1 [Compound 37],< 0.1 µM,> 1 µM
O=C(N[C@H](c1cn2nc(C[C@H]3C[C@@H](C(F)(F)F)CNC3=O)cnc2n1)C1CCC(F)(F)CC1)c1conc1C1CC1 [Compound 38],0.1 to 1 µM,> 1 µM
"O=C(N[C@H](c1cn2nc(C[C@H]3C[C@@H](C(F)(F)F)CNC3=O)cnc2n1)C(C1CC1)C1CC1)c1nonc1C1CC1 [Compound 39, 4-cyclopropyl-N—((S)-2,2-dicyclopropyl-1-(2-(((3R,5R)-2-oxo-5-(trifluoromethyl)piperidin-3-yl)methyl)imidazo[1,2-b][1,2,4]triazin-6-yl)ethyl)-1,2,5-oxadiazole-3-carboxamide]",< 0.1 µM,> 1 µM
O=C(N[C@H](c1cn2nc(C[C@H]3C[C@@H](C(F)(F)F)CNC3=O)cnc2n1)C1CCC(F)(F)CC1)c1conc1CCF [Compound 40],0.1 to 1 µM,> 1 µM
CC(C)n1nccc1C(=O)N[C@H](c1cn2nc(C[C@H]3C[C@H](C(F)(F)F)CNC3=O)cnc2n1)C1CCC(F)(F)CC1 [Compound 41],0.1 to 1 µM,> 1 µM
O=C(N[C@H](c1cn2nc(C[C@H]3C[C@@H](C(F)(F)F)CNC3=O)cnc2n1)C1CCC(F)(F)CC1)c1conc1C(F)(F)F [Compound 42],0.1 to 1 µM,> 1 µM
O=C(N[C@H](c1cn2nc(C[C@H]3C[C@@H](C(F)(F)F)CNC3=O)cnc2n1)C1CCC(F)(F)CC1)c1nonc1C1CC1 [Compound 43],< 0.1 µM,> 1 µM
CCn1nccc1C(=O)N[C@H](c1cn2nc(C[C@H]3C[C@@H](C(F)(F)F)CNC3=O)c(N3CCOCC3)nc2n1)C1CCC(F)(F)CC1 [Compound 46],< 0.1 µM,0.1 to 1 µM
CCn1nccc1C(=O)N[C@H](c1cn2nc(CC3C[C@@H](C(F)(F)F)CNC3=O)c(N3CCOCC3)nc2n1)C1CCC(F)(F)CC1 (stereo partly drawn) [Compound 47],< 0.1 µM,> 1 µM
O=C(N[C@H](c1cn2nc(C[C@H]3C[C@H](C(F)(F)F)CNC3=O)cnc2n1)C1CCC(F)(F)CC1)c1nonc1C1CC1 [Compound 53],0.1 to 1 µM,> 1 µM
O=C(N[C@H](c1cn2nc(CC3C[C@@H](C(F)(F)F)CNC3=O)c(N3CCOCC3)nc2n1)C1CCC(F)(F)CC1)c1nonc1C1CC1 (stereo partly drawn) [Compound 57],< 0.1 µM,> 1 µM
CCn1nccc1C(=O)N[C@H](c1cn2nc(CC3C[C@@H](C(F)(F)F)CNC3=O)c(N3CCOCC3)nc2n1)[C@H]1CC[C@H](C)CC1 (stereo partly drawn) [Compound 58],< 0.1 µM,0.1 to 1 µM
CCn1nccc1C(=O)N[C@H](c1cn2nc(CC3C[C@@H](C(F)(F)F)CNC3=O)c(N3CCOCC3)nc2n1)[C@H]1CC[C@H](C)CC1 (stereo partly drawn) [Compound 59],< 0.1 µM,> 1 µM
"CC[C@@H](c1ccc(F)cc1)[C@H](NC(=O)c1ccnn1CC)c1cn2nc(C[C@H]3C[C@@H](C(F)(F)F)CNC3=O)cnc2n1 [Compound 60, 1-ethyl-N-((1S,2S)-2-(4-fluorophenyl)-1-(2-(((3R,5R)-2-oxo-5-(trifluoromethyl)piperidin-3-yl)methyl)imidazo[1,2-b][1,2,4]triazin-6-yl)butyl)-1H-pyrazole-5-carboxamide]",< 0.1 µM,> 1 µM
